PubChem BioAssay AID330 (DTP/NCI, 2004)
“And” between values parts separate entries of the source, which are not always exact repeats. Identical values can stand only once. Toxic doses and inconclusive results are not listed. Rule for the calls: active = survival T/C of 150% or more; inactive = T/C below 125% in these data.

Test system: P388 leukemia ip, CD2F1 mice, survival T/C
Assay: NCI In Vivo Anticancer Drug Screen. Data for tumor model P388 Leukemia (intraperitoneal) in CD2F1 (CDF1) mice
Conditions: endpoint: median survival time, higher = longer survival
In short: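 Mice carrying the transplanted tumor received test compound or vehicle. Survival was recorded in each group, and the value is the treated-group measurement divided by that of the vehicle-treated control group.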

Measured: T/C

O=C(CCCN1CCN(c2cc3ccccc3cn2)CC1)c1ccc(F)cc1
inactive: dose: 12.5 mg/kg/injection, schedule: Q01DX005 (ip), vehicle: Klucel (hydroxypropylcellulose) (HPC) 109 % of control | dose: 25.0 mg/kg/injection, schedule: Q01DX005 (ip), vehicle: Klucel (hydroxypropylcellulose) (HPC) 109 % of control | dose: 50.0 mg/kg/injection, schedule: Q01DX005 (ip), vehicle: Klucel (hydroxypropylcellulose) (HPC) 110 % of control and 115 % of control

CC(CO)NC(=O)C1C=C2c3cccc4[nH]cc(c34)CC2N(C)C1 (stereo not given)
inactive: dose: 9.0 mg/kg/injection, schedule: Q01DX009 (ip), vehicle: saline 97 % of control | dose: 18.0 mg/kg/injection, schedule: Q01DX009 (ip), vehicle: saline 91 % of control | dose: 44.5 mg/kg/injection, schedule: Q01DX009 (ip), vehicle: saline 97 % of control | dose: 89.0 mg/kg/injection, schedule: Q01DX009 (ip), vehicle: saline 97 % of control | dose: 178.0 mg/kg/injection, schedule: Q01DX009 (ip), vehicle: saline 106 % of control

CCOC(=O)CCOCOCCC(=O)OCC
inactive: dose: 100.0 mg/kg/injection, schedule: Q01DX009 (ip), vehicle: saline 100 % of control | dose: 200.0 mg/kg/injection, schedule: Q01DX009 (ip), vehicle: saline 115 % of control | dose: 400.0 mg/kg/injection, schedule: Q01DX009 (ip), vehicle: saline 110 % of control

CCOc1cc2c(cc1C(CC)c1ccc(O)cc1)OCO2 (stereo not given)
inactive: dose: 50.0 mg/kg/injection, schedule: Q01DX005 (ip), vehicle: distilled water + Tween-80 93 % of control | dose: 100.0 mg/kg/injection, schedule: Q01DX005 (ip), vehicle: distilled water + Tween-80 93 % of control | dose: 200.0 mg/kg/injection, schedule: Q01DX005 (ip), vehicle: distilled water + Tween-80 96 % of control

CCCCOC(=O)CC(C(=O)OCCCC)C(C(=O)OCCCC)P(=O)(OCCCC)OCCCC (stereo not given)
inactive: dose: 50.0 mg/kg/injection, schedule: Q01DX005 (ip), vehicle: saline with Tween-80 99 % of control | dose: 100.0 mg/kg/injection, schedule: Q01DX005 (ip), vehicle: saline with Tween-80 100 % of control | dose: 200.0 mg/kg/injection, schedule: Q01DX005 (ip), vehicle: saline with Tween-80 98 % of control

CCCC/[N+]([O-])=N/O
inactive: dose: 3.0 mg/kg/injection, schedule: Q01DX005 (ip), vehicle: Klucel (hydroxypropylcellulose) (HPC) 103 % of control | dose: 6.0 mg/kg/injection, schedule: Q01DX005 (ip), vehicle: Klucel (hydroxypropylcellulose) (HPC) 95 % of control | dose: 12.0 mg/kg/injection, schedule: Q01DX005 (ip), vehicle: Klucel (hydroxypropylcellulose) (HPC) 100 % of control | dose: 24.0 mg/kg/injection, schedule: Q01DX005 (ip), vehicle: Klucel (hydroxypropylcellulose) (HPC) 101 % of control

O=C1C2CC(CN3CCCCC23)C2CCCCN12 (stereo not given)
inactive: dose: 6.2 mg/kg/injection, schedule: Q01DX007 (ip), vehicle: carboxymethylcellulose (CMC) 100 % of control | dose: 12.5 mg/kg/injection, schedule: Q01DX007 (ip), vehicle: carboxymethylcellulose (CMC) 91 % of control | dose: 25.0 mg/kg/injection, schedule: Q01DX007 (ip), vehicle: carboxymethylcellulose (CMC) 91 % of control | dose: 37.5 mg/kg/injection, schedule: Q01DX009 (ip), vehicle: saline 95 % of control | dose: 75.0 mg/kg/injection, schedule: Q01DX009 (ip), vehicle: saline 102 % of control | dose: 150.0 mg/kg/injection, schedule: Q01DX009 (ip), vehicle: saline 101 % of control

COc1cccc2c1C(=O)c1c(O)c3c(c(O)c1C2=O)CC(O)(C(C)NCCN(C)C)CC3OC1CC(N)C(O)C(C)O1 (stereo not given)
active: dose: 20.0 mg/kg/injection, schedule: Q01DX009 (ip), vehicle: other 153 % of control | dose: 40.0 mg/kg/injection, schedule: Q01DX009 (ip), vehicle: other 157 % of control
inactive: dose: 0.63 mg/kg/injection, schedule: Q01DX009 (ip), vehicle: water 103 % of control | dose: 1.25 mg/kg/injection, schedule: Q01DX009 (ip), vehicle: water 106 % of control | dose: 2.5 mg/kg/injection, schedule: Q01DX009 (ip), vehicle: other 121 % of control

CCOC(=O)C(Cc1ccc(N(CCCl)CCCl)cc1)NC(=O)C(C)NC(C)=O (stereo not given)
inactive: dose: 5.0 mg/kg/injection, schedule: Q04DX003 (ip), vehicle: water 108 % of control | dose: 10.0 mg/kg/injection, schedule: Q04DX003 (ip), vehicle: water 111 % of control and 113 % of control | dose: 40.0 mg/kg/injection, schedule: Q04DX003 (ip), vehicle: water 122 % of control

ClC1=CC(Cl)=C2N=C(N3CCCC3)N=C3N=C(N4CCCC4)N=C1N32
inactive: dose: 50.0 mg/kg/injection, schedule: Q01DX005 (ip), vehicle: Klucel + Tween-80 93 % of control | dose: 100.0 mg/kg/injection, schedule: Q01DX005 (ip), vehicle: Klucel + Tween-80 93 % of control | dose: 200.0 mg/kg/injection, schedule: Q01DX005 (ip), vehicle: Klucel + Tween-80 90 % of control

Cc1cccc[n+]1CC(=O)C[n+]1ccccc1C
inactive: dose: 50.0 mg/kg/injection, schedule: Q01DX005 (ip), vehicle: saline 95 % of control | dose: 100.0 mg/kg/injection, schedule: Q01DX005 (ip), vehicle: saline 101 % of control
